Measured values published in patent US4897391A, “Tricyclic anti-allergy, antiinflammatory and anti-hyperproliferative compounds” (Schering Corporation, priority 1988, dated 1990).
Counter-ions that a name gives are not always drawn. Like-named read-outs stand apart in the source and are kept apart here.

Legend:
5-lipoxygenase = biological target: T1, 5-lipoxygenase (Mus musculus, UniProt P48999); experiment: 5-Lipoxygenase Assay (MC-9 mast cells, 5-HETE and LTC4 production); type: cell-based, murine; conditions: for inhibition at 3.12 µM: MC9, 3.12 μM dose; for inhibition at 6.25 µM: MC9, 6.25 μM dose; for inhibition at 12.5 µM: MC9, 12.5 μM dose; for inhibition at 25 µM: MC9, 25 μM dose
T1 construct: Preincubate MC-9 cells (0.39 ml at 7.5×10^6 cells/ml) without or with test compound; endogenous in cells; host or cells: MC-9 murine mast cell clone (interleukin-3-dependent)
T1 sequence (P48999 1-674): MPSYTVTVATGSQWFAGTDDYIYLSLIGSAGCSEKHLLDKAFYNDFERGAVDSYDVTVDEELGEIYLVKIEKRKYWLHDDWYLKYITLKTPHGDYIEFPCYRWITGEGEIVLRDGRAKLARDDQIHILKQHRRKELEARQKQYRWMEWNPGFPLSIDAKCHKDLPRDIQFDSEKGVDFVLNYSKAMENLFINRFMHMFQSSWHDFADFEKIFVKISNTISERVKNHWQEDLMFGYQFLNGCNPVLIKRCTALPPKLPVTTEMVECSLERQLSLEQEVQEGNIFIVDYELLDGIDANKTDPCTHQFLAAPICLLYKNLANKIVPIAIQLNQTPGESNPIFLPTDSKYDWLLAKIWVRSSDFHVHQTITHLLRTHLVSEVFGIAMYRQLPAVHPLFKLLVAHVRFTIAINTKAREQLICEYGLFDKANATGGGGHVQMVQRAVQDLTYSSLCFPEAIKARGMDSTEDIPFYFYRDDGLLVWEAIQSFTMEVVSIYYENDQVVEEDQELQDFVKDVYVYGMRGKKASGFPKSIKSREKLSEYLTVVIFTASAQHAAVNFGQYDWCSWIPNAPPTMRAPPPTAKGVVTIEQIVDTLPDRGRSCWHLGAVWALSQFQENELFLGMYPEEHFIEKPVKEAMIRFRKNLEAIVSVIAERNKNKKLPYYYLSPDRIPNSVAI
Method: Preincubate MC-9 cells (0.39 ml at 7.5×10^6 cells/ml) without or with test compound dissolved in dimethylsulfoxide (DMSO) vehicle (to a final volume 1 μl) for 4 minutes then incubate for 5 minutes with [^14 C]arachidonic acid (Amersham, 59 Ci/mole) at a 9 μM final concentration, and A23187 (Calbiochem) at a 1 μM final concentration in 10 μl of water:ethanol (9:1). Stop the reaction by addition of methanol (0.4 ml), and remove cellular debris by centrifugation. Run aliquots (250 μl) of the incubations on a Waters two-pump HPLC system fitted with a Waters radial compression column (C18, 10 micron, 8×100 mm, micro-Bondapak) and C18 "Guard Pak". Initially elute the column at 3 ml/min with water:methanol:acetic acid (67:33:0.08) containing 1 mM EDTA adjusted to pH 6.0 with ammonium hydroxide (Pump A). At 4 minutes, establish a linear gradient to reach 100% methanol (Pump B) at 9 minutes. Between 13 and 14 minutes, exchange for the initial eluting solvent and by 19 minutes the column will be reequilibrated for the next sample. Analyze the effluent by a continuous flow radioactivity monitor (model ROMONA-D) interfaced with a Hewlett Packard Lab Automation System for quantitation of radioactive products. […] Doses in table 2 are 50 μM unless otherwise noted.

[1] = system: Peptidoleukotriene Release in Guinea Pig Lung; experiment: Peptidoleukotriene Release Inhibition in Lung Assay; type: cell-based; conditions: Cavia porcellus; final concentration of 50 μm (so in the source); ovalbumin challenge, sensitized guinea pig lung
Text: The anti-allergy method of this invention is identified by tests that measure inhibition of leukotriene release in sensitized guinea pigs by compounds of the invention. This procedure is as follows.
First, kill sensitized guinea pigs by a blow to the head, remove the lungs and clean them of visible connective tissue, trachea and large blood vessels. Slice the lungs from individual animals into fragments approximately 1 mm in thickness using a McIlwain tissue chopper and wash them with oxygenated Tyrode's buffer. Transfer weighed aliquots (approximately 400 mg wet weight) of lung into vials containing 2 ml of fresh Tyrode's solution (containing 10 mM cysteine) and incubate in the presence or absence of test compound for 12 minutes at 37° C., challenge the tissues with 20 μg ovalbumin/ml (final concentration) and incubate for 15 minutes. To measure leukotriene release, extract an aliquot of supernatant fluid with 4 volumes of 100% ethanol. After removal of the precipitated protein, dry the clear fluid under a stream of N2 gas. Measure the leukotriene content by a radioimmunoassay using [^3 H]LTC4 (leukotriene C4) and antiserum obtained from New England Nuclear. […] Calculate percent inhibition of leukotriene release by comparing for each lung the release in the presence of the test compound to that in the absence of test compound.

[2] = MC9, 50 μM dose, MC-9 cells, read-out: % Inhibition 5-HETE
[3] = MC9, 50 μM dose, MC-9 cells, read-out: % Inhibition LTC4
[4] = MC-9 cells, read-out: % Inhibition 5-HETE
[5] = MC-9 cells, read-out: % Inhibition LTC4

inhibition at 50 µM (5-lipoxygenase; [2]) [%] | Compound | inhibition at 50 µM [1] [%] | also measured
56 | CC(=O)Oc1cc(OC(C)=O)c2c3c(n(C)c(=O)c2c1)CCC3 |  | 
5 | CC(=O)Oc1cc(OC(C)=O)c2c(-c3ccccc3)c(C)n(C)c(=O)c2c1 [5,7-bis(acetyloxy)-2,3-dimethyl-4-phenyl-1(2H)-isoquinolinone] | 45 | 
43 | CC(=O)Oc1cc(OC(C)=O)c2c(C)c[nH]c(=O)c2c1 [5,7-bis(acetyloxy)-4-methyl-1(2H)-isoquinolinone] |  | inhibition at 50 µM (5-lipoxygenase; [3]): 40%
18 | CC(=O)Oc1cc(OC(C)=O)c2c(-c3ccccc3)c3n(c(=O)c2c1)CCC3 [7,9-bis(acetyloxy)-2,3-dihydro-10-phenyl-6H-pyrrolo[1,2-b]isoquinolin-5(1H)-one] | 76 | inhibition at 50 µM (5-lipoxygenase; [3]): 10%
2 | CC(=O)Oc1cc(OC(C)=O)c2c(OC(C)=O)c3n(c(=O)c2c1)CCCC3 [8,10,11-tris(acetyloxy)-1,2,3,4-tetrahydro-6H-benzo[b]quinolizin-6-one] | 39 | 
21 | CC(=O)Oc1cc(OC(C)=O)c2c(-c3ccccc3)c3n(c(=O)c2c1)CCCC3 [8,10-bis(acetyloxy)-1,2,3,4,-tetrahydro-11-phenyl-6H-benzo[b]quinolizin-6-one] | 66 | 
56 | CC(=O)Oc1cc(OC(C)=O)c2c3c([nH]c(=O)c2c1)CCCC3 [8,10-bis(acetyloxy)-1,3,4,5,6-tetrahydro-6(2H)-phenanthridinone] | 36 | inhibition at 50 µM (5-lipoxygenase; [3]): 41%

More lines, now with the values behind:

Compound | inhibition at 50 µM (5-lipoxygenase; [2]) [%] | inhibition at 50 µM [1] [%] | also measured
O=c1[nH]c2c(c3c(O)cc(O)cc13)CCC2 | 31 |  | 
O=C1c2cc(O)cc(O)c2C(O)(c2ccccc2)C2CCCCN12 (stereo not shown) [1,2,3,4,11,11a-hexahydro-8,10,11-trihydroxy-11-phenyl-6H-benzo[b]quinolizin-6-one] | 23 |  | inhibition at 50 µM (5-lipoxygenase; [3]): 32%
O=c1c2cc(O)cc(O)c2c(O)c2n1CCCC2 [1,2,3,4-tetrahydro-8,10,11-trihydroxy-6H-benzo[b]quinolizin-6-one] | 18 | 28 | 
Cc1c2n(c(=O)c3cc(O)cc(O)c13)CCCC2 [1,2,3,4-tetrahydro-8,10-dihydroxy-11-methyl-6H-benzo[b]quinolizin-6-one, disodium salt] |  | 71 | inhibition at 50 µM (5-lipoxygenase; MC9, read-out: % Inhibition 5-HETE): 88%
O=c1[nH]c2c(c3c(O)cc(O)cc13)CCCC2 [1,3,4,5-tetrahydro-8,10-dihydroxy-phenanthridin-6(2H)-one] | 31 |  | 
CC(=O)Oc1cc(OC(C)=O)c2c(-c3ccccc3)c(C)[nH]c(=O)c2c1 [5,7-bis(acetyloxy)-3-methyl-4-phenyl-1(2H)-isoquinolinone] | 31 | 12 | inhibition at 50 µM (5-lipoxygenase; [3]): 27%
CC(=O)Oc1cc(OC(C)=O)c2c(-c3ccccc3)c[nH]c(=O)c2c1 [5,7-bis(acetyloxy)-4-phenyl-1(2H)-isoquinolinone] | 19 |  | inhibition at 50 µM (5-lipoxygenase; [3]): 16%
Cc1c2n(c(=O)c3cc(OC(=O)C(C)(C)C)cc(OC(=O)C(C)(C)C)c13)CCCC2 [8,10-bis(2,2-dimethyl-1-oxopropoxy)-11-methyl-1,3,4,6-tetrahydro-6H-benzo[b]quinolizin-6-one] | 45 | 5 | 
Cc1c2n(c(=O)c3cc(OC(=O)CN)cc(OC(=O)CN)c13)CCCC2 [8,10-bis[(aminoacetyl)oxy]-11-methyl-1,2,3,4-tetrahydro-6H-benzo[b]quinolizine-6-one dihydrochloride] | 99 |  | 
CC(=O)Oc1ccc2c(c1)C(=O)N1CCCCC1C2(C)O (stereo not shown) [8-acetyloxy-1,2,3,4,11,11a-hexahydro-11-hydroxy-11-methyl-6H-benzo[b]quinolizin-6-one] | 5 |  | 
CC(=O)Oc1ccc2c(C)c3n(c(=O)c2c1)CCCC3 [8-acetyloxy-1,2,3,4-tetrahydro-11-methyl-6H-benzo[b]quinolizin-6-one] | 19 | 9 | 
CC(=O)Oc1ccc2c(=O)n3c(c(C)c2c1OC(C)=O)CCCC3 [9,10-bis(acetyloxy)-1,2,3,4-tetrahydro-11-methyl-6H-benzo[b]quinolizin-6-one] | 74 | 84 | 
CC(=O)Oc1cc(OC(C)=O)c2c(C)c3n(c(=O)c2c1)CCCC3 [A, 8,10-bis(acetyloxy)-1,2,3,4-tetrahydro-11-methyl-6H-benzo[b]quinolizin-6-one] |  | 69 | inhibition at 3.12 µM (5-lipoxygenase; [4]): 50%; inhibition at 3.12 µM (5-lipoxygenase; [5]): 57%; inhibition at 6.25 µM (5-lipoxygenase; [4]): 65%; inhibition at 6.25 µM (5-lipoxygenase; [5]): 59%; inhibition at 12.5 µM (5-lipoxygenase; [4]): 62%; inhibition at 12.5 µM (5-lipoxygenase; [5]): 54%; inhibition at 25 µM (5-lipoxygenase; [4]): 93%; inhibition at 25 µM (5-lipoxygenase; [5]): 90%
Cc1c2n(c(=O)c3cc(O)cc(O)c13)CCCC2 [C, 1,2,3,4-tetrahydro-8,10-dihydroxy-11-methyl-6H-benzo[b]quinolizin-6-one] | 100 | 61 | 
CC(=O)Oc1ccc2c(C)c3n(c(=O)c2c1OC(C)=O)CCCC3 [D, 7,8-bis(acetyloxy)-1,2,3,4-tetrahydro-11-methyl-6H-benzo[b]quinolizin-6-one] | 98 | 62 | 
